Patent US20210106566A1, “PHARMACEUTICAL COMPOSITION FOR TREATING AND/OR PREVENTING PERIPHERAL NEUROPATHY OR SPINAL CORD INJURY” (NATIONAL UNIVERSITY CORPORATION NAGOYA UNIVERSITY, priority 2015, published 2021)

Experiments:
primary motor neurons = experiment: Scratch assay of neurite regeneration; assay type: cell-based, mouse; conditions: 0, 1, 10, or 20 μmol/L, 48 hours after scratch
Experimental: Primary cultured motor neurons were seeded in a Nun Lab-Tek Chamber Slide (Thermo Scientific) coated with poly-L-lysine at 8.0×10^4 cells/cm^2×0.7 cm^2/well and then cultured in Sumilon neuron culture medium for 48 hours. Neurites of primary motor neurons were linearly scratched off with a 200 μL sterile pipette tip. The cells were immediately rinsed with PBS and cultured in Sumilon neuron culture medium containing 0, 1, 10, or 20 μmol/L zonisamide for 48 hours. The cells were fixed in 4% paraformaldehyde and immunostained with neuron-specific β-III tubulin monoclonal antibody (1:1000, MAB1195, R&D systems) and Alexa Fluor 488-conjugated goat anti-mouse secondary antibody (Life Technologies). Images of the scratched areas were acquired on a microscope (Olympus LX71). The neurite lengths of primary motor neurons in the scratched areas were automatically measured with MetaMorph software (Universal Imaging).

[1] = tested on: severely crushed spinal cord model mice; experiment: Severely crushed spinal cord model mice: rotarod test; assay type: in vivo, mouse
Excerpt: Female C57BL/6J mice (8 weeks old; 19.5-22.0 g) were purchased from Charles River. The female C57BL/6J mice were anesthetized by intraperitoneally administering pentobarbital sodium and underwent back incision under a sterile condition to perform laminectomy at the 10th thoracic vertebra. The spinal cord was crushed at 100 kdyn using a tip with a diameter of 1.35 mm on IH Spinal Cord Impactor. After the occurrence of hematoma in the spinal cord was confirmed under a microscope, the wound was closed and 1 ml of physiological saline was subcutaneously injected into the posterior neck region to prevent dehydration. The mice with spinal cord injury were separated into two groups in a blinded fashion. […] One day after surgery, motor function of mice in both groups was assessed using BMS score (Basso mouse scale; Li et. al. J Neurosurg Spine 4: 165-173 (2006)) in a blinded fashion to select the mice with BMS score of 1 or lower and consider them as severely crushed spinal cord model mice. […] The latency until a mouse fell off the rotarod (holding time, in seconds; a maximum latency of 300 seconds) was measured in the accelerating rotation mode with an initial speed of 2 rpm, an accelerated speed of 5 rpm/min, and a maximum speed of 40 rpm. The latency was measured 3 times at an interval of 10 minutes and the three measurements were averaged for assessment (FIG. 15).

[2] = tested on: mouse sciatic nerve autologous transplantation model; experiment: Mouse sciatic nerve autologous transplantation model: tibialis anterior muscle cross sections; assay type: in vivo; conditions: 30 mg/kg/day, 8 weeks after surgery
Excerpt: Adult male C57BL/6J mice (8 weeks old; 19.5-22.0 g) were purchased from Charles River. The mice were anesthetized with isoflurane and underwent gluteal muscle incision under a sterile condition to expose the sciatic nerve in the left leg. The sciatic nerve was cut at the following two sites (1) and (2): (1) the site 3 mm distal to the first bifurcation of biceps femoris (hereinafter referred to as proximal transection site) (2) the site 3 mm distal to the proximal transection site (hereinafter referred to as distal transection site) The excised nerve segment with a length of 3 mm was confirmed to be completely cut at the two sites. The perineurium was sutured with nylon thread (10-0 black) at the proximal transection site and the distal transection site under a microscope. The remaining thread was used as a marker for finding the nerve transection site in the sacrifice of the mice. In order to reduce DMSO toxicity, a solution of 60 mg/mL zonisamide in 100% DMSO was prepared and the solution was diluted in olive oil to give a solution of 3 mg/mL zonisamide in 5% DMSO. […] Myelin sheath formation in the sciatic nerve was analyzed in six mice in each group. […] The number and area of myelinated axons in the sciatic nerve were manually measured using ImageJ software in a blinded fashion. […]

## NS(=O)(=O)Cc1noc2ccccc12 [Zonisamide, 3-sulfamoylmethyl-1,2-benzisoxazole]
Primary motor neurons
  neurite length in the scratch assay: dose-dependent increase
[1]; day 28 after surgery, 30 mg/kg/day intragastrically
  holding time on rotarod: 135.3 ± 16.4 s
[1]; days 21 and 28 after surgery
  holding time on rotarod compared to the control group: longer
[2]
  denervation atrophy of tibialis anterior muscle (cross-sectional area of muscle fibers): promoted recovery from denervation atrophy
